Assay results: patent publication US8461364B2, “Polymorphs of (S)-3-aminomethyl-7-(3-hydroxy-propoxy)-3H-benzo[C][1,2]oxaborol-1-OL” (GlaxoSmithKline LLC, priority 2008, dated 2013)
Values belong to the compound of their own block, whether it stands above or below them.

Key:
Format in all cases: physicochemical
[1] = Stability study: storage of the polymorph under ambient conditions, XRPD afterwards
Source text: The HCl1 polymorph, which was a hard bulky material, was placed in a closed Amber bottle and stored under ambient conditions. Four months later, the bottle was opened, and the hard bulky material was now a free flowing powder. An XRPD was taken of this free flowing powder.

[2] = Thermogravimetric analysis (TGA); details: ramp 15° C./minute
Experimental: The sample pan was tared, and sample of (S)-3-aminomethyl-7-(3-hydroxy-propoxy)-3H-benzo[c][1,2]oxaborol-1-ol polymorph form HCl4 prepared in Example 2, Method-B, was placed in the pan. The temperature was ramped at a rate of 15° C./minute.
The TGA thermogram of polymorph form HCl3 was acquired using a TA Instruments Q500 Thermogravimetric Analyzer. The sample pan was tared, and sample of (S)-3-aminomethyl-7-(3-hydroxy-propoxy)-3H-benzo[c][1,2]oxaborol-1-ol polymorph form HCl3 prepared as described above was placed in the pan. The temperature was ramped at a rate of 15° C./minute. A weight-loss of 4.7% between 27 and 104° C. was observed and is associated with water-loss due to dehydration.

[3] = Differential scanning calorimetry (DSC); details: ramp 15° C./minute, loose lid aluminum pan
Experimental: Instrument: TA Instruments Thermal Analysis System, Model DSC Q100
Key Operating Parameters:
Module—DSC Standard Cell FC
Method 1: Equilibrate at 25.00° C.
The DSC thermogram was acquired using a TA Instruments Q100 Differential Scanning calorimeter, as indicated above. A sample of (S)-3-aminomethyl-7-(3-hydroxy-propoxy)-3H-benzo[c][1,2]oxaborol-1-ol polymorph form HCl4 prepared in Example 2, Method B, was accurately weighed out directly into an aluminum DSC pan. The pan was sealed by applying pressure by hand and pushing each part of the pan together (also known as a loose lid configuration). The temperature was ramped at a rate of 15° C./minute. An endothermic transition having an onset of 178.1° C. was measured, and is associated with a decomposition event.

[4] = Form screen with competitive ripening experiments (Raman/XPRD grouping); details: for relative polymorph stability (additional studies incl. single crystal form screen): 48 solvents/solvent mixtures, four crystallization modes, room temperature
Experimental: Alternative methods for preparing polymorph form HCl1, form HCl2, form HCl4, and form HCl5 involve the use of a form screen procedure. The input material for the screen was a nonsolvated form of the hydrochloride salt of (S)-3-aminomethyl-7-(3-hydroxy-propoxy)-3H-benzo[c][1,2]oxaborol-1-ol. […] Screening was conducted in a total of 48 solvents/solvent mixtures using four different crystallization modes listed below. The solvents included water, methanol, 1-propanol, nitromethane, acetonitrile, dimethylsulfoxide, acetone, 2-butanone, dichloromethane, methyl acetate, […], ethyl acetate, chlorobenzene, tetrahydrofuran, 1,4-dioxane, isopropyl ether, toluene, cyclohexane, heptanes, 1-butanol, 2-propanol, trifluoroethanol, dimethyl carbonate, t-butyl methyl ether, isopropyl acetate, ethanol, 1-methoxy-2-propanol, cyclohexanone, dimethyl formamide, 2-methoxyethyl ether, methanol:5 vol % H2O, acetonitrile:5 vol % H2O, acetone:5 vol % H2O, tetrahydrofuran:5 vol % H2O, 2-propanol:5 vol % H2O, methanol:10 vol % H2O, acetonitrile:10 vol % H2O, acetone:10 vol % H2O, tetrahydrofuran:10 vol % H2O, dioxane:10 vol % H2O, 2-propanol:10 vol % H2O, isopropanol+10% dimethylsulfoxide, acetonitrile+10% dimethylsulfoxide, and n-methylpyrrolidone.
Vapor diffusions were also conducted in selected solvents. The four crystallization modes used were: • temperature-cycled ripening of slurries • rapid cooling of room-temperature solutions • room-temperature evaporation of solutions • vapor diffusion of solvent/anti-solvent combinations Characterization:
All samples from the screen were isolated and analyzed by Raman spectroscopy. The samples were then grouped based on Raman spectral match. Representative samples from each of the groups were further analyzed by additional analytical techniques as appropriate (XPRD, DSC, TG-IR, PLM, etc.).
The temperature-cycle, rapid cool, and vapor diffusion samples formed a single group (Group A/Input) based on Raman and XPRD analyses. Most evaporative samples also produced Group A. However, five additional groups (Group B, Group C, Group D, Group E, and Group F) were produced from evaporative and evaporative scale-up experiments based on Raman analyses. These groups were selected for further analysis and/or scale-up.
Group B was an evaporative experiment from nitromethane produced in very low yields (<3 mg). This sample was analyzed by Raman, XPRD, and DSC. Insufficient sample was present for TG-IR (thermogravimetric-infrared spectroscopy). Six scale-up experiments were set up and each produced an amorphous or oily solid. […]
Group C was produced from two evaporative experiments from acetone and 2-butanone in very low yields (<1 mg). This sample was analyzed by Raman, and insufficient sample was present for further analysis. […]

[5] = Storage of Form HCl5 (sealed vial / room temperature)
Experimental: A solution of isopropanol containing 20% water by volume was added to a vial containing approximately 25 mg of polymorph form HCl4. The resulting mixture was stirred as the temperature was cycled between 0 and 40° C. over the course of 48 hours. The solution was isolated by filtration and evaporated to dryness. The freshly isolated product was verified to be Form HCl5.

SMILES: Cl.NC[C@H]1OB(O)c2c(OCCCO)cccc21 [polymorph form HCl1, (S)-3-aminomethyl-7-(3-hydroxy-propoxy)-3H-benzo[c][1,2]oxaborol-1-ol.HCl]
solid form after storage (XRPD) ([1]; closed Amber bottle, ambient conditions, four months): converted into the HCl4 form during storage

weight-loss (water-loss due to dehydration) ([2]; between 27 and 104° C.): 4.7%
SMILES: Cl.NC[C@H]1OB(O)c2c(OCCCO)cccc21 [polymorph form HCl3, (S)-3-aminomethyl-7-(3-hydroxy-propoxy)-3H-benzo[c][1,2]oxaborol-1-ol.HCl]

onset of endothermic transition associated with a decomposition event [3]: 178.1 °C
stepwise weight-loss (water-loss due to reversible chemical transformation) ([2]; between 162 and 214° C.): 6.4%
temperature beyond which further decomposition is observed [2]: > 214 °C
relative polymorph stability ([1]; from conversion during four months storage at ambient conditions): more stable polymorph than HCl1
relative polymorph stability (additional studies incl. single crystal form screen) [4]: most stable polymorph
relative polymorph stability (additional studies incl. single crystal form screen) ([4]; listed as input material): most stable form at room temperature
stability compared to other polymorphs of the HCl salt ([4]; physical and/or chemical stability, general statement): increased stability
SMILES: Cl.NC[C@H]1OB(O)c2c(OCCCO)cccc21 [polymorph form HCl4, (S)-3-aminomethyl-7-(3-hydroxy-propoxy)-3H-benzo[c][1,2]oxaborol-1-ol.HCl]

form after storage ([5]; sealed vial, at least 7 days): conversion to Form HCl3
stability of isolated form (Raman) ([4]; sample from very slow evaporation from acetone with 20% water): unstable and converted to Group E
SMILES: Cl.NC[C@H]1OB(O)c2c(OCCCO)cccc21 [polymorph form HCl5, (S)-3-aminomethyl-7-(3-hydroxy-propoxy)-3H-benzo[c][1,2]oxaborol-1-ol.HCl]
stability on storage ([5]; stored at room temperature): unstable when stored at room temperature and converts to Form HCl3
